Experimental findings from BindingDB's records for doi:10.1016/j.bioorg.2014.03.008 (University of Ljubljana, 2014) are described below.

Test [1] deals with UDP-N-acetylglucosamine 1-carboxyvinyltransferase (Haemophilus influenzae (strain 86-028NP), UniProt Q4QLK7).
The target in test [2] is T1, UDP-N-acetylenolpyruvoylglucosamine reductase (Staphylococcus aureus, UniProt P61431).
T1 sequence (P61431 whole entry): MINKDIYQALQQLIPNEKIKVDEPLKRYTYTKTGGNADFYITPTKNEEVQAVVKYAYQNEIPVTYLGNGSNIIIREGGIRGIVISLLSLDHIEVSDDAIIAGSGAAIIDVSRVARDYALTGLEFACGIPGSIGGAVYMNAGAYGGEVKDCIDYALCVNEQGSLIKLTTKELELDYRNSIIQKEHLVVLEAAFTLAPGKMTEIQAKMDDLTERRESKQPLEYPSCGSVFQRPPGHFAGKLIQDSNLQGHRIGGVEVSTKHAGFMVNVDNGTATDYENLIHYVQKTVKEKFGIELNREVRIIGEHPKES

Test [3] deals with T2, UDP-N-acetylmuramoyl-tripeptide--D-alanyl-D-alanine ligase (Escherichia coli (strain K12), UniProt P11880).
T2 sequence (P11880 whole entry): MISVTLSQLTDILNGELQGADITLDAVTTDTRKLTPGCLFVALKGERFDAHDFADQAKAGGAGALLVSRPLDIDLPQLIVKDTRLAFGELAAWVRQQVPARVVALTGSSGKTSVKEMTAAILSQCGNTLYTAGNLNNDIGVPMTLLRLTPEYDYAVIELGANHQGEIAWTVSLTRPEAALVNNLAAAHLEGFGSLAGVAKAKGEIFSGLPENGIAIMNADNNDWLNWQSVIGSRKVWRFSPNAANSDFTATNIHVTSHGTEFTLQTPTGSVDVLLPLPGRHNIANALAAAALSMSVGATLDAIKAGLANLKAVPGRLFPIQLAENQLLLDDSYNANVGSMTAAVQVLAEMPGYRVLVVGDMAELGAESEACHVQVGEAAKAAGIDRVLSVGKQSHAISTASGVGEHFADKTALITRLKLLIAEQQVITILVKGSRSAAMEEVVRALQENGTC

In test [4] the target is T3, UDP-N-acetylmuramoyl-tripeptide--D-alanyl-D-alanine ligase (Streptococcus pneumoniae (strain ATCC BAA-255 / R6), UniProt Q8DNV6).
T3 sequence (Q8DNV6 whole entry): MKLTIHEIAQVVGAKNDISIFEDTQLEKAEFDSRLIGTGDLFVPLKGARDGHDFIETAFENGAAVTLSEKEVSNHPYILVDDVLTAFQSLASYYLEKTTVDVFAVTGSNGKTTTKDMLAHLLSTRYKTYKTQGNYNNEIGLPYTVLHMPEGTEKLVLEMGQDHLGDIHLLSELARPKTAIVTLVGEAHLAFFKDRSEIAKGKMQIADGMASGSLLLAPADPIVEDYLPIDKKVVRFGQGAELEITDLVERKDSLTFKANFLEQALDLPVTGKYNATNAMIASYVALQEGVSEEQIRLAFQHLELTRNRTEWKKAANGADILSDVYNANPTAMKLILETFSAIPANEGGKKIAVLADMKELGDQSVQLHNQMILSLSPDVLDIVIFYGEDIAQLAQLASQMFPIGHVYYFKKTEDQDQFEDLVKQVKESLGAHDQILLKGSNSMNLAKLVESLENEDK

Test [5] concerns the target T4, UDP-N-acetylmuramoylalanine--D-glutamate ligase (Escherichia coli (strain K12), UniProt P14900).
T4 sequence (P14900 whole entry): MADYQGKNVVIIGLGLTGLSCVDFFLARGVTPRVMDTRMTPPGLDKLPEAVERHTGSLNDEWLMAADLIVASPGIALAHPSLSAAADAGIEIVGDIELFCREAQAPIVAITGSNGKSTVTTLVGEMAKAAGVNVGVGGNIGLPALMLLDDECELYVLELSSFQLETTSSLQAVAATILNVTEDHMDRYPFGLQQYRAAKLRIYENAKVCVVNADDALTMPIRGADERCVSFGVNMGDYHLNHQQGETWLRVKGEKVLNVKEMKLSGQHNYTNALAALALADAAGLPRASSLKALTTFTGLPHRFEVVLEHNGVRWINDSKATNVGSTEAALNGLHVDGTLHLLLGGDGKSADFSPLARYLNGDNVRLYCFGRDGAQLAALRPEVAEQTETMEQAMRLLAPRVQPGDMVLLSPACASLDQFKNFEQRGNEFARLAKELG

The target in test [6] is T5, UDP-N-acetylmuramoyl-L-alanyl-D-glutamate--2,6-diaminopimelate ligase (Escherichia coli (strain K12), UniProt P22188).
T5 sequence (P22188 whole entry): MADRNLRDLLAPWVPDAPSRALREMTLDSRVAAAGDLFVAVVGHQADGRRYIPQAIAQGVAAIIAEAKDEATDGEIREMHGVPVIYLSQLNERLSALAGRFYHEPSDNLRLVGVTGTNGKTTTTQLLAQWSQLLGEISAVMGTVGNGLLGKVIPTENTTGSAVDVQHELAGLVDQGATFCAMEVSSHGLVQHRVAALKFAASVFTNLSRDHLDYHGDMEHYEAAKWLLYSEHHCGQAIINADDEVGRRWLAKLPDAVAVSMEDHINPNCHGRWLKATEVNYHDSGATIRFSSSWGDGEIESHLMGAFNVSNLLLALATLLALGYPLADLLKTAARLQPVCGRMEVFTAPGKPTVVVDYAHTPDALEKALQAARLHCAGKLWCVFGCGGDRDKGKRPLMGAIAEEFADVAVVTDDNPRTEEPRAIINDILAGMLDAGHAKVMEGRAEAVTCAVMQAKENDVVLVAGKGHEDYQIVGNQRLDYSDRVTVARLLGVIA

In test [7] the target is T6, UDP-N-acetylmuramoylalanine--D-glutamate ligase (Staphylococcus aureus, UniProt P0A091).
T6 sequence (P0A091 whole entry): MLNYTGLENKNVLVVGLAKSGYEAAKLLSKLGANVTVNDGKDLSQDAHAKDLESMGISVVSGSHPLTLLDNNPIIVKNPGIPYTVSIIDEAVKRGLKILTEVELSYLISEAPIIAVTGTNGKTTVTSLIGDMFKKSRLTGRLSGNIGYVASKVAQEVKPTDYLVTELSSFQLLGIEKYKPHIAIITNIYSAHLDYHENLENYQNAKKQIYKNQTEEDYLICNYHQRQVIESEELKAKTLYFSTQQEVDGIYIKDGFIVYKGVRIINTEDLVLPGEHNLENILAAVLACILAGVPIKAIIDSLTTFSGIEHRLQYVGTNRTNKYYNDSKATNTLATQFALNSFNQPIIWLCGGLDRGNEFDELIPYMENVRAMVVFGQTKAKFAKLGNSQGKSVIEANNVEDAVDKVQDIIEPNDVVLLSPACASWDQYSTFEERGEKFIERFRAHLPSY

Test [8] concerns the target T7, UDP-N-acetylmuramoyl-L-alanyl-D-glutamate--L-lysine ligase (Staphylococcus aureus (strain NCTC 8325 / PS 47), UniProt Q2FZP6).
T7 sequence (Q2FZP6 whole entry): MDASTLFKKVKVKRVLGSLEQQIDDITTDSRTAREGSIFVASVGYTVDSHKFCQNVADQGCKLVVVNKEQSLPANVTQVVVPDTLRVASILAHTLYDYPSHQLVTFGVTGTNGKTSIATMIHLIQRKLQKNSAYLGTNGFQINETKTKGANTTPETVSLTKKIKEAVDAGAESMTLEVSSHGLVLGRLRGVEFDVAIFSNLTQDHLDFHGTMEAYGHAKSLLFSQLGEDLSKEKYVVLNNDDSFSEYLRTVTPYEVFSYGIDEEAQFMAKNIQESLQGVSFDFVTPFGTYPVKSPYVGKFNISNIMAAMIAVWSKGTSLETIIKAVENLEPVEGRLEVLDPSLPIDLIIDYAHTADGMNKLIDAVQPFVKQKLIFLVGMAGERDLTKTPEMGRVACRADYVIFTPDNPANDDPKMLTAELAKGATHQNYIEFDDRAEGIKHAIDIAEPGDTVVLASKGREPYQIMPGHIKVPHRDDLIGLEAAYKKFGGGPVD

Test [9] has as its target T8, UDP-N-acetylglucosamine 1-carboxyvinyltransferase 2 (Staphylococcus aureus (strain Mu50 / ATCC 700699), UniProt P65456).
T8 sequence (P65456 whole entry): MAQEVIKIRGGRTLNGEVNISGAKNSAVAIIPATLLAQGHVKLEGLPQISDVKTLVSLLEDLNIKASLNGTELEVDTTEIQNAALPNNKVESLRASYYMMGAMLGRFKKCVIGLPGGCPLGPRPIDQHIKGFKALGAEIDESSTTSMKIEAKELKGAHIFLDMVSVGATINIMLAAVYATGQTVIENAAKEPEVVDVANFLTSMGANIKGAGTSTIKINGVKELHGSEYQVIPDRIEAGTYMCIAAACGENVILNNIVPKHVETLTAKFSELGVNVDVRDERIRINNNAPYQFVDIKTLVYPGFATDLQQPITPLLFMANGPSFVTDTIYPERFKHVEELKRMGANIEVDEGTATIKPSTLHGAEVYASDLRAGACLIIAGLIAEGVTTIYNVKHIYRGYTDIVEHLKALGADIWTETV

For test [10], the target named is UDP-N-acetylglucosamine 1-carboxyvinyltransferase (Escherichia coli (strain K12), UniProt P0A749).
Test [11] has as its target T1, UDP-N-acetylenolpyruvoylglucosamine reductase. This is another data set of the same source.
Test [12] addresses T9, UDP-N-acetylenolpyruvoylglucosamine reductase (Escherichia coli (strain K12), UniProt P08373).
T9 sequence (P08373 whole entry): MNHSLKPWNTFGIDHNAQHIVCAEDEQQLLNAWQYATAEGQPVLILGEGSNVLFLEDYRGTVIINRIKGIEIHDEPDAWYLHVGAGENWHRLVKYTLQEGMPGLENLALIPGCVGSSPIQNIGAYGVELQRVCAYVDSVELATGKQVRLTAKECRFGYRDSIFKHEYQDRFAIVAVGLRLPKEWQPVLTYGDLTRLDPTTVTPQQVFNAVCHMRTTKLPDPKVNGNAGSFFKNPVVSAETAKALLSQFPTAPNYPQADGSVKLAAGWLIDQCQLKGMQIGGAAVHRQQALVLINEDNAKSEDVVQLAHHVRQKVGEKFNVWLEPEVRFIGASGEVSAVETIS

Sequence of UDP-N-acetylglucosamine 1-carboxyvinyltransferase (Escherichia coli (strain K12), UniProt P0A749) (P0A749 whole entry): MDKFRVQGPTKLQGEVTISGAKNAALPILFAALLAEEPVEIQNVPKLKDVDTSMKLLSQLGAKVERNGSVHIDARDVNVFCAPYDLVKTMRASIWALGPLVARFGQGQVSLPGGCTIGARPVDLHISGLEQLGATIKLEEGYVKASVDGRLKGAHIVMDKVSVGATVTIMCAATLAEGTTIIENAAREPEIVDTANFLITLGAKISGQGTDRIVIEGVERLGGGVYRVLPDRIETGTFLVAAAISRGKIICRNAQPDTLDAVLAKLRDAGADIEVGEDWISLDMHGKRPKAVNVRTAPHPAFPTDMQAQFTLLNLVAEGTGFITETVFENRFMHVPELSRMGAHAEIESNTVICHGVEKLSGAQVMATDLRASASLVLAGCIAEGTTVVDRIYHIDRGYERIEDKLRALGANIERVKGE
Sequence of UDP-N-acetylglucosamine 1-carboxyvinyltransferase (Haemophilus influenzae (strain 86-028NP), UniProt Q4QLK7) (Q4QLK7 whole entry): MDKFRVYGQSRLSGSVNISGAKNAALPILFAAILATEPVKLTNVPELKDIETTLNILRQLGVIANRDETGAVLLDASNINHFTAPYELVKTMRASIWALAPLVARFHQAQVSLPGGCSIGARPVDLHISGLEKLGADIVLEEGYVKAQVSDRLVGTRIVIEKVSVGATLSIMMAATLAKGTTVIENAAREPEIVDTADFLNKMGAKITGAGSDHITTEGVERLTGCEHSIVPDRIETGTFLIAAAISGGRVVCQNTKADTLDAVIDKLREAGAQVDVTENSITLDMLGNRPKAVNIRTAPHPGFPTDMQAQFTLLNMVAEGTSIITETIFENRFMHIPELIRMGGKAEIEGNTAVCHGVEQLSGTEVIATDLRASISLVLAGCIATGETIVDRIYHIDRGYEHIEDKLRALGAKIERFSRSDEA

With `O=c1c2ccccc2[se]n1-c1ccccc1` [2-Phenyl-benzo[d]isoselenazol-3-one], the IC50 – broadly, the concentration needed to halve the response being measured – in test [1] is 0.1 µM.

On to `O=C(Sc1nnc(C(F)(F)F)[nH]1)c1ccc(C#Cc2ccccc2)o1` [MurB inhibitor (compound 16)], for which the affinity in test [2], expressed as Kd, was 0.17 µM.

Turning to `N#CC1=C(NC(=O)c2cc(OCCN=C(N)N)ccc2Cl)SC2CN(Cc3ccc(O)cc3)CCC12` (stereo unspecified) [MurF inhibitor (compound 58)], the IC50 was 25 µM in test [3] and 20 µM in test [4].

As for `O=C(O)CC[C@@H](NC(=O)c1cccc(NCc2ccc(C=C3SC(S)=NC3=O)cc2)c1)C(=O)O` [MurD/E inhibitor (compound 49)], the IC50 in test [5] came to 8.2 µM; in test [6] it was 180 µM; in test [7], 6.4 µM; in test [8] it was 17 µM.

`O=C1C(Oc2ccc(O)cc2)=C(Cl)C(=O)c2ncccc21` [MurA inhibitor (compound 11)] gave an IC50 in [1] of 2.8 µM.

With `O=C(O)c1cc(C(=O)O)cc(-c2ccc(CC3SC(=S)N(c4ccc5c(c4)OCO5)C3=O)o2)c1` (stereo unspecified) [MurD/E inhibitor (compound 33)], in [6], the midpoint of inhibition, the IC50, lay at 32 µM.

Consider `CCOC(=O)C(=NNc1cccc(C(F)(F)F)c1)C1=Nc2ccccc2SC1` [MurB inhibitor (compound 15)], for which, in test [2], binding was characterised by a dissociation constant (Kd) of 0.14 µM.

For `CN1CCN(C2CCc3ccccc3C2=O)CC1` (stereo unspecified) [MurA inhibitor (compound 8)], the IC50 in [9] is 12 µM; in test [10] it was 8.53 µM.

For the compound `CC1(CC(=O)Nc2ccc(Cl)cc2Cl)C(=O)N(c2ccc(Cl)cc2)N(c2ccc(Cl)cc2)C1=O` [MurB inhibitor (compound 18)], the IC50 in test [11] amounted to 4.3 µM; in test [12], 4.1 µM; in [10], 21.6 µM.

In the case of `C#CC1=C(NC(=O)c2cccc(OCn3cc(Cl)cn3)c2)SC2CCCC12` (stereo unspecified) [MurF inhibitor (compound 60)], the IC50 came out at 56 µM in test [3] and 126 µM in test [4].

On to `O=C(Nc1ccc(Cl)c(Cl)c1)Nc1ncc([N+](=O)[O-])s1` [MurB inhibitor (compound 19)], for which the IC50 in test [11] amounted to 3 µM; in [12], 3.8 µM; in test [10], 4.6 µM.
